# Molecular target: T1, human protease activated receptor 1 (PAR1) (Homo sapiens, UniProt P25116)
# T1 construct: the cell stably expresses the endogenous human PAR1 receptor and the endogenous purinergic receptor P2Y2; endogenous in cells; host or cells: HEK293-derived recombinant cell line constitutively expressing mitochondrial aequorin
# T1 sequence (P25116 22-425): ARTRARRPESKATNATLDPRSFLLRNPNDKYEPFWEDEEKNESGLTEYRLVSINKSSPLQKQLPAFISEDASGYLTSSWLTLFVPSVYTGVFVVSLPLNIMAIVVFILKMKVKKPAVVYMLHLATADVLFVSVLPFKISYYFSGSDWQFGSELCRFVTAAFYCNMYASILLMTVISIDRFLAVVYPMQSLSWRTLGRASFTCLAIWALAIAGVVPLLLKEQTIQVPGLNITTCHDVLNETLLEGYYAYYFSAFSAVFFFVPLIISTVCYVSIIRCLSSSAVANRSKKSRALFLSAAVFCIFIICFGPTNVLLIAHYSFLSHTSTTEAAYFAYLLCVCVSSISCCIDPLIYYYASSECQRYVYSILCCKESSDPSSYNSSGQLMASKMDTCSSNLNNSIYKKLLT
# Assay: Cellular functional in vitro test (aequorin luminescence, PAR1 test cell)
# Assay type: cell-based
# Conditions: recombinant HEK293-derived cell line expressing aequorin; PAR1 agonist added at its EC50 5 minutes after test substance
# Excerpt: 1.a) Cellular Functional In vitro Test
# A recombinant cell line is used to identify […] of the human protease activated receptor 1 (PAR1) and to quantify the activity of the substances described herein. The cell is originally derived from a human embryonal kidney cell (HEK293; ATCC: American Type Culture Collection, Manassas, Va. 20108, USA). The test cell line constitutively expresses a modified form of the calcium-sensitive photoprotein aequorin which, after reconstitution with the cofactor coelenterazine, emits light when the free calcium concentration in the inner mitochondrial compartment is increased (Rizzuto R, Simpson A W, Brini M, Pozzan T.; Nature 1992, 358, 325-327). Additionally, the cell stably expresses the endogenous human PAR1 receptor and the endogenous purinergic receptor P2Y2. The resulting PAR1 test cell responds to stimulation of the endogenous PAR1 or P2Y2 receptor with an intracellular release of calcium ions, which can be quantified through resulting aequorin luminescence with a suitable luminometer (Milligan G, Marshall F, Rees S, Trends in Pharmacological Sciences 1996, 17, 235-237).
# For testing the substance specificity, its effect after activation of the endogenous PAR1 receptor is compared to the effect after activation of the endogenous purinergic P2Y2 receptor which utilizes the same intracellular signal path.
# Test procedure: The cells are plated out two days (48 hours) before the test in culture medium (DMEM F12, supplemented with 10% FCS, 2 mM glutamine, 20 mM HEPES, 1.4 mM pyruvate, 0.1 mg/ml gentamycin, 0.15% Na bicarbonate; BioWhittaker Cat.# BE04-687Q; B-4800 Verviers, Belgium) in 384-well microtitre plates and kept in a cell incubator (96% atmospheric humidity, 5% V/V CO2, 37° C.). On the day of the test, the culture medium is replaced by a tyrode solution (in mM: 140NaCl, 5l KCl, 1MgCl2, 2CaCl2, 20 glucose, 20 HEPES), which additionally contains the cofactor coelenterazine (25 μM) and glutathione (4 mM), and the microtitre plate is then incubated for a further 3-4 hours. The test substances are then pipetted onto the microtitre plate, and 5 minutes after the transfer of the test substances into the wells of the microtitre plate the plate is transferred into the luminometer, a PAR1 agonist concentration which corresponds to the EC50 is added and the resulting light signal is immediately measured in the luminometer. To distinguish an antagonist substance action from a toxic action, the endogenous purinergic receptor is immediately subsequently activated with agonist (ATP, final concentration 10 μM) and the resulting light signal is measured.
row,SMILES,IC50 [nM]
1,"CCc1ccc(C2CC(c3nc(-c4cccc(OC)c4)no3)CN(C(=O)N3CCOCC3)C2)cc1 (racemic) [Example 28, 4-({3-(4-Ethylphenyl)-5-[3-(3-methoxyphenyl)-1,2,4-oxadiazol-5-yl]piperidin-1-yl}carbonyl)-morpholine]",28
2,"CCc1ccc(C2CC(c3nc(-c4ccc(F)cc4F)no3)CN(C(=O)N3CCOCC3)C2)cc1 (racemic) [Example 37, 4-({3-[3-(2,4-Difluorophenyl)-1,2,4-oxadiazol-5-yl]-5-(4-ethylphenyl)piperidin-1-yl}carbonyl)-morpholine]",21
3,"Cc1ccncc1-c1csc(C2CC(c3ccc(C(F)(F)F)cc3)CN(C(=O)N3CCOCC3)C2)n1 (racemic) [Example 113, 4-({3-[4-(4-Methylpyridin-3-yl)-1,3-thiazol-2-yl]-5-[4-(trifluoromethyl)phenyl]piperidin-1-yl}carbonyl)morpholine]",47
4,"O=C(N1CCOCC1)N1CC(c2ccc(C(F)(F)F)cc2)CC(c2nc(-c3cccnc3)cs2)C1 (racemic) [Example 119, 4-({3-(4-Pyridin-3-yl-1,3-thiazol-2-yl)-5-[4-(trifluoromethyl)phenyl]piperidin-1-yl}carbonyl)-morpholine]",68
5,"Cc1ccc(C2CC(c3nc(C(C)C)no3)CN(C(=O)N3CCOCC3)C2)cc1C (racemic) [Example 148, {3-(3,4-Dimethylphenyl)-5-[3-(propan-2-yl)-1,2,4-oxadiazol-5-yl]piperidin-1-yl}(morpholin-4-yl)methanone]",14
6,"CCc1ccc(C2CC(c3nc(CCOC)no3)CN(C(=O)N3CCOCC3)C2)cc1 (racemic) [Example 150, {3-(4-Ethylphenyl)-5-[3-(2-methoxyethyl)-1,2,4-oxadiazol-5-yl]piperidin-1-yl}(morpholin-4-yl)methanone]",19
7,CCc1ccc(C2CC(c3nc(C(C)(C)C)no3)CN(C(=O)N3CCC(O)CC3)C2)cc1 (racemic) [Example 152],48.1
8,"CC1CN(C(=O)N2CC(c3ccc(C(F)(F)F)cc3)CC(c3nc(C4CC4)no3)C2)C1 (racemic) [Example 181, {3-(3-Cyclopropyl-1,2,4-oxadiazol-5-yl)-5-[4-(trifluoromethyl)phenyl]piperidin-1-yl}(3-methylazetidin-1-yl)methanone]",28.8
9,"CCc1ccc(C2CC(c3nc(CCOC)no3)CN(C(=O)N3CCC(O)CC3)C2)cc1 (racemic) [Example 183, {3-(4-Ethylphenyl)-5-[3-(2-methoxyethyl)-1,2,4-oxadiazol-5-yl]piperidin-1-yl}(4-hydroxy-piperidin-1-yl)methanone]",31.5
10,"CCc1ccc(C2CC(c3nc(C(C)(C)O)no3)CN(C(=O)N3CCC(O)CC3)C2)cc1 (racemic) [Example 187, {3-(4-Ethylphenyl)-5-[3-(2-hydroxypropan-2-yl)-1,2,4-oxadiazol-5-yl]piperidin-1-yl}(4-hydroxy-piperidin-1-yl)methanone]",53.4
11,"Cc1ccc(C2CC(c3nc(C(C)C)no3)CN(C(=O)N3CCC(C#N)CC3)C2)cc1C (racemic) [Example 197, 1-({3-(3,4-Dimethylphenyl)-5-[3-(propan-2-yl)-1,2,4-oxadiazol-5-yl]piperidin-1-yl}carbonyl)-piperidine-4-carbonitrile]",77.5
12,"CC(C)(O)Cc1noc(C2CC(c3ccc(C(F)(F)F)cc3)CN(C(=O)N3CCC(C#N)CC3)C2)n1 (racemic) [Example 212, 1-({3-[3-(2-Hydroxy-2-methylpropyl)-1,2,4-oxadiazol-5-yl]-5-[4-(trifluoromethyl)phenyl]-piperidin-1-yl}carbonyl)piperidine-4-carbonitrile]",142
13,"Cc1ccc(C2CC(c3nc(C(C)C)no3)CN(C(=O)N3CCC(O)CC3)C2)cc1C (racemic) [Example 234, {3-(3,4-Dimethylphenyl)-5-[3-(propan-2-yl)-1,2,4-oxadiazol-5-yl]piperidin-1-yl}(4-hydroxy-piperidin-1-yl)methanone]",15.4
14,"Cc1cc(-c2noc(C3CC(c4ccc(OC(F)(F)F)cc4)CN(C(=O)N4CCOCC4)C3)n2)no1 (racemic) [Example 249, {3-[3-(5-Methylisoxazol-3-yl)-1,2,4-oxadiazol-5-yl]-5-[4-(trifluoromethoxy)phenyl]piperidin-1-yl}(morpholin-4-yl)methanone]",13.1
15,"CC(C)(C)c1noc(C2CC(c3ccc(C(F)(F)F)cc3)CN(C(=O)N3CCC(C#N)CC3)C2)n1 (racemic) [Example 283, 1-({3-(3-tert-Butyl-1,2,4-oxadiazol-5-yl)-5-[4-(trifluoromethyl)phenyl]piperidin-1-yl}carbonyl)-piperidine-4-carbonitrile]",14.9
16,"CC(C)c1noc(C2CC(c3ccc(C(F)(F)F)cc3)CN(C(=O)N3CCC(C#N)CC3)C2)n1 (racemic) [Example 284, 1-({3-[3-(Propan-2-yl)-1,2,4-oxadiazol-5-yl]-5-[4-(trifluoromethyl)phenyl]piperidin-1-yl}-carbonyl)piperidine-4-carbonitrile]",9.73
17,"Cc1ccncc1-c1noc(C2CC(c3ccc(C(F)(F)F)cc3)CN(C(=O)N3CCOCC3)C2)n1 (racemic) [Example 329, {3-[3-(4-Methylpyridin-3-yl)-1,2,4-oxadiazol-5-yl]-5-[4-(trifluoromethyl)phenyl]piperidin-1-yl}-(morpholin-4-yl)methanone]",24

# Compounds with a lower IC50, results first:
row,IC50 [nM],SMILES
1,8.51,"O=C(N1CC(c2ccc(OC(F)(F)F)cc2)CC(c2nc(C3CC3)no2)C1)N1CCC(F)(F)C1 (racemic) [Example 144, {3-(3-Cyclopropyl-1,2,4-oxadiazol-5-yl)-5-[4-(trifluoromethoxy)phenyl]piperidin-1-yl}(3,3-difluoropyrrolidin-1-yl)methanone]"
2,4.61,"O=C(N1CCOCC1)N1CC(c2ccc(C(F)(F)F)cc2)CC(c2noc(-c3cccc(F)c3)n2)C1 (racemic) [Example 159, {3-[5-(3-Fluorophenyl)-1,2,4-oxadiazol-3-yl]-5-[4-(trifluoromethyl)phenyl]piperidin-1-yl}-(morpholin-4-yl)methanone]"
3,5.4,"O=C(N1CCOCC1)N1CC(c2ccc(C(F)(F)F)cc2)CC(c2noc(-c3ccccc3)n2)C1 (racemic) [Example 160, Morpholin-4-yl{3-(5-phenyl-1,2,4-oxadiazol-3-yl)-5-[4(trifluoromethyl)phenyl]piperidin-1-yl}-methanone]"
4,6.74,"CC(C)c1nc(C2CC(c3ccc(C(F)(F)F)cc3)CN(C(=O)N3CCOCC3)C2)no1 (racemic) [Example 169, Morpholin-4-yl{3-[5-(propan-2-yl)-1,2,4-oxadiazol-3-yl]-5-[4-(trifluoromethyl)phenyl]piperidin-1-yl}methanone]"
5,1.72,"Cc1cc(C2CC(c3nc(-c4cccc(F)c4)no3)CN(C(=O)N3CCC(O)CC3)C2)ccc1OC(F)(F)F (racemic) [Example 229, {3-[3-(3-Fluorophenyl)-1,2,4-oxadiazol-5-yl]-5-[3-methyl-4-(trifluoromethoxy)phenyl]piperidin-1-yl}(4-hydroxypiperidin-1-yl)methanone]"
6,2.81,"Cc1cc(C2CC(c3nc(C4CC4)no3)CN(C(=O)N3CCC(O)CC3)C2)ccc1OC(F)(F)F (racemic) [Example 230, {3-(3-Cyclopropyl-1,2,4-oxadiazol-5-yl)-5-[3-methyl-4-(trifluoromethoxy)phenyl]piperidin-1-yl}(4-hydroxypiperidin-1-yl)methanone]"
7,6.44,"Cc1ccc(C2CC(c3nc(-c4cccc(F)c4)no3)CN(C(=O)N3CCC(O)CC3)C2)cc1C (racemic) [Example 232, {3-(3,4-Dimethylphenyl)-5-[3-(3-fluorophenyl)-1,2,4-oxadiazol-5-yl]piperidin-1-yl}(4-hydroxy-piperidin-1-yl)methanone]"

# — patent publication US8119663B2, “Heteroaryl-substituted piperidines” (Bayer Pharma Aktiengesellschaft, priority 2007, dated 2012)
